In ChEMBL document CHEMBL5113462, “Synthesis and evaluation of inhibitors of Mycobacterium tuberculosis UGM using bioisosteric replacement” (Bioorg Med Chem, 2022):

What was measured:
[1] = target: T1, UDP-galactopyranose mutase (Mycobacterium tuberculosis, UniProt P9WIQ1); assay: Inhibition of Mycobacterium tuberculosis UGM expressed in Escherichia coli BL21(DE3) assessed as dissociation constant by fluorescence polarization assay
[2] = target: UDP-galactopyranose mutase (Klebsiella pneumoniae, UniProt Q48485); assay: Inhibition of Klebsiella pneumoniae UGM expressed in Escherichia coli BL21(DE3) assessed as dissociation constant by fluorescence polarization assay
[3] = target: UDP-galactopyranose mutase (Mycobacterium tuberculosis) (UniProt P9WIQ1); assay: Inhibition of Mycobacterium tuberculosis UGM expressed in Escherichia coli BL21(DE3) assessed as formation of UDP-galactopyranose at 500 uM preincubated for 5 min followed by substrate addition and measured after 1 to 3 mins using UDP-galactofuranose as substrate by HPLC analysis relative to control; settings: time 6-8 min
[4] = target: UDP-galactopyranose mutase (Mycobacterium tuberculosis) (UniProt P9WIQ1); assay: Inhibition of Mycobacterium tuberculosis UGM expressed in Escherichia coli BL21(DE3) at 500 uM by Fluorescence polarization assay relative to control
[5] = target: T1, UDP-galactopyranose mutase; assay: Inhibition of Mycobacterium tuberculosis UGM expressed in Escherichia coli BL21(DE3) assessed as dissociation constant by SPR analysis
[6] = target: UDP-galactopyranose mutase (Klebsiella pneumoniae) (UniProt Q48485); assay: Inhibition of Klebsiella pneumoniae UGM expressed in Escherichia coli BL21(DE3) at 500 uM by Fluorescence polarization assay relative to control
Chain of UDP-galactopyranose mutase (Klebsiella pneumoniae) (Q48485 whole entry): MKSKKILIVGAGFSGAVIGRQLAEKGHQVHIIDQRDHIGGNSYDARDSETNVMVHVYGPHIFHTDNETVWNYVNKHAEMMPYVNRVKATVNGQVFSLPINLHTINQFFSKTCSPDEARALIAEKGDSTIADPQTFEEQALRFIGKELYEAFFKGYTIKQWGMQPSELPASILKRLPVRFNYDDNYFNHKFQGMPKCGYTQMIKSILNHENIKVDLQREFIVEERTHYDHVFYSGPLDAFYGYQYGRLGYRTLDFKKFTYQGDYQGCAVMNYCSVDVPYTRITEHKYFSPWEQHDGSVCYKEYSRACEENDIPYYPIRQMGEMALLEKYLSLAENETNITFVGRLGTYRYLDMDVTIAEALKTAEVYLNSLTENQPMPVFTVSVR

T1 sequence (P9WIQ1 whole entry): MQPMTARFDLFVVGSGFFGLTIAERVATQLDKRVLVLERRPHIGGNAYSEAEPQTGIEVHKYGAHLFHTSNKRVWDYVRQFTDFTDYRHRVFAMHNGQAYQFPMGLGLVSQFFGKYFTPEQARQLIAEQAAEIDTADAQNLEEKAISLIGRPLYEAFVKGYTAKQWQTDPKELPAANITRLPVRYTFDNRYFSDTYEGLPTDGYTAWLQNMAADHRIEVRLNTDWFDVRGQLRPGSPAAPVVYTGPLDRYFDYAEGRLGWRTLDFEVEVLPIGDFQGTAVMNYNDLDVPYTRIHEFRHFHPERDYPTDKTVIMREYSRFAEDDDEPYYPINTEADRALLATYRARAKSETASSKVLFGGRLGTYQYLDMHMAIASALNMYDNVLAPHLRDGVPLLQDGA
Chain of UDP-galactopyranose mutase (Mycobacterium tuberculosis) (P9WIQ1 whole entry, looked up): as the sequence (P9WIQ1 whole entry) above
Chain of UDP-galactopyranose mutase (Klebsiella pneumoniae, UniProt Q48485) (Q48485 whole entry): as the sequence (Q48485 whole entry) above

| SMILES | Kd [1] [µM] | Kd [2] [µM] | inhibition [3] [%] | inhibition [4] [%] | Kd [5] [µM] | inhibition [6] [%] |
| --- | --- | --- | --- | --- | --- | --- |
| O=C(/C=C/c1ccccc1)N[C@@H](Cc1ccc(Br)cc1)C(=O)O | 63 | 58 | 87 | 82 | 105 | 59 |
| O=C(/C=C/c1ccccc1)N[C@@H](Cc1ccc([N+](=O)[O-])cc1)C(=O)O | 401 | 231 | 35.2 | 62 | – | 59 |
| O=C(/C=C/c1ccc(O)c(O)c1)N[C@@H](Cc1ccc(O)cc1)C(=O)O | – | – | – | 18 | – | – |
| O=C(/C=C/c1ccccc1)N[C@@H](Cc1ccc(O)cc1)C(=O)O | – | – | – | 29 | – | – |
| O=C(/C=C/c1ccccc1)N[C@@H](Cc1ccc(Cl)cc1)C(=O)O | 358 | 43 | 63.3 | 49 | – | 41 |
| COc1cc(/C=C/C(=O)N[C@@H](Cc2ccc(O)c(O)c2)C(=O)O)ccc1O | – | – | – | 19 | – | – |
| O=C(/C=C/c1ccccc1)N[C@@H](Cc1ccc(F)cc1)C(=O)O | 948 | 156 | – | 46 | – | 58 |
| O=C(/C=C/c1ccccc1)N[C@@H](Cc1ccc(I)cc1)C(=O)O | 197 | 17 | 54.6 | 77 | – | 60 |
| O=C(/C=C/c1ccccc1)N[C@@H](Cc1ccccc1)C(=O)O | > 1000 | > 1000 | – | 45 | – | 59 |
| O=C(/C=C/c1ccc(O)c(O)c1)O[C@H](Cc1ccc(O)c(O)c1)C(=O)O [ROSMARINIC ACID] | 653 | 69 | – | 48 | – | 46 |
| O=c1ccn([C@@H]2O[C@H](COP(=O)(O)OP(=O)(O)O)[C@@H](O)[C@H]2O)c(=O)[nH]1 [URIDINE_DIPHOSPHATE] | 35 | 54 | 47.6 | 86 | – | 63 |
